Assay results as given in US20250298019A1, “BORRELIA BURGDORFERI PEPTIDOGLYCAN DETECTION METHODS” (VIRGINIA TECH INTELLECTUAL PROPERTIES, INC., priority 2021, published 2025).

Test system: B. burgdorferi 5A11
Experiment: Growth of B. burgdorferi in BSK-II medium with GlcNAc replaced by other N-acetylated sugars
Assay type: cell-based, Borrelia burgdorferi
Settings: FIG. 7; for ability to support growth in the absence of GlcNAc: GlcNAc-free BSK-II supplemented with the sugar, 37° C., 5% CO2

Row | Compound | ability to support growth in the absence of GlcNAc | replication rate and final density compared with GlcNAc (5A11 in BSK-II complete media supplemented with the sugar, three independent cultures)
1 | CC(=O)N[C@H]1C(O)O[C@H](CO)[C@H](O)[C@@H]1O (stereo partly drawn) [GalNAc, N-acetylgalactosamine] | support growth in the absence of GlcNAc | 
2 | CC(=O)N[C@@H]1C(O)O[C@H](CO)[C@@H](O)[C@@H]1O (stereo partly drawn) [ManNAc, N-acetylmannosamine] | support growth in the absence of GlcNAc | replicated at a similar rate and reached a comparable final density to GlcNAc
